Experimental data from patent US20250360134A1, “6-6 OR 5-6 FUSED BICYCLIC COMPOUNDS COMPRISING A PYRI(MI)DINE RING USEFUL IN THE|TREATMENT OF INFECTIOUS DISEASES” (INSTITUT NATIONAL DE LA SANTE ET DE LA RECHERCHE MEDICALE …, priority 2020, published 2025).
Structures can show the parent of a compound that is named as a salt. Where two headings read alike, the source gives them in different places.

Columns and labels:
[1] = system: Plasmodium falciparum W2; test: In vitro antiplasmodial activity, SYBR Green I, strain W2; settings: Plasmodium falciparum, W2, 48 h, read-out: IC50 Plasmodium falciparum W2, chloroquine-resistant strain W2, 48-hour incubation
Protocol: (§1) The in vitro antiplasmodial activities were tested over concentrations ranging from 39 to 40 μm against culture-adapted Plasmodium falciparum: reference strains 3D7 and W2. […] The parasites were cultivated in RPMI medium (Sigma-Aldrich, Lyon, France) supplemented with 0.5% Albumax I (Life Technologies Corporation, Paisley, UK), hypoxanthine (Sigma-Aldrich), and gentamicin (Sigma-Aldrich) with human erythrocytes and were incubated at 37° C. in a candle jar, as described in Desjardins R E et al., Antimicrob Agents Chemother, 1979; 16:710-18.
(§2) The P. falciparum drug susceptibility test was carried out in 96-well flat bottom sterile plates in a final volume of 250 μL. After a 48-hour incubation with the drugs, quantities of DNA in treated and control cultures of parasites in human erythrocytes were quantified using the SYBR Green I (Sigma-Aldrich) fluorescence-based method as described in Bennett T N et al, Antimicrob Agents Chemother, 2004; 48:1807-10. Briefly, after incubation, plates were frozen at −20° C. until use. Plates were then thawed for 2 hours at room temperature, and 100 μL of each homogenized culture was transferred to a well of a 96-well flat bottom sterile black plate (Nunc, Inc., Rochester, NY) that contained 100 μL of the SYBR Green I lysis buffer (2×SYBR Green, 20 mM Tris base pH 7.5, 5 mM EDTA, 0.008% w/v saponin, 0.08% w/v Triton X-100). […] Plates were incubated for 1 hour at room temperature and then read on a fluorescence plate reader (Tecan, Grödig, Austria) using excitation and emission wavelengths of 485 and 535 nm, respectively. Concentrations inhibiting 50% of the parasite's growth (half maximal inhibitory concentration or IC50 values) were then calculated from the obtained experimental results by non-linear regression analysis of data from dose-response curves, using TableCurve 2D version 5.0 software (Systat Software, San Jose, CA). IC50 values are reported as means calculated from three independent experiments, as described in H. Kaddouri et al., Antimicrob.

[2] = system: Trypanosoma 9 and 11 chromosomic sequence FTrypBT; test: FRET-melting, FTrypBT; settings: K+ condition, 2 μM compound, 0.2 μM oligonucleotide
[3] = system: Plasmodium falciparum 3D7; test: In vitro antiplasmodial activity, SYBR Green I, strain 3D7; settings: Plasmodium falciparum, 3D7, 48 h, read-out: IC50 Plasmodium falciparum 3D7, chloroquine-sensitive strain 3D7, 48-hour incubation
Protocol: as §1, §2

[4] = Cytotoxicity evaluation, MTT; assay type: cell-based, human; settings: HepG2 cells (hepatocarcinoma-derived, ATCC HB-8065); human HepG2 cells, 72 hours, MTT
Protocol: The aim of this assay was to evaluate the impact of metabolic activation of the tested compounds on cell viability.
A cytotoxicity evaluation was performed using the method reported in Emami S A et al., Iran J Basic Med Sci 2012; 15:807-11 to determine the cytotoxic concentrations 50% (CC50) and using doxorubicin as a cytotoxic reference compound. These assays were performed in human HepG2 cells. HepG2 cells were purchased from ATCC (ref HB-8065). These cells are a commonly used human hepatocarcinoma-derived cell line that has characteristics similar to those of primary hepatocytes. These cells express many hepatocyte-specific metabolic enzymes, thus enabling the cytotoxicity of tested product metabolites to be evaluated. Briefly, cells in 100 μl of complete RPMI medium [RPMI supplemented with 10% FCS, 1% 1-glutamine (200 mM), penicillin (100 U/ml), and streptomycin (100 μg/ml)] were inoculated into each well of 96-well plates and incubated at 37° C. in a humidified chamber in 6% CO2. After 24 hours, 100 μl of medium with test compound at various concentrations dissolved in DMSO (final concentration less than 0.5% v/v) was added, and the plates were incubated for 72 hours at 37° C. Duplicate assays were performed for each sample. Each well was microscopically examined for precipitate formation before the medium was aspirated from the wells. After aspiration, 100 μl of MTT solution (0.5 mg/ml in medium without FCS) were then added to each well. Cells were incubated for 2 hours at 37° C. MTT solution was removed, and DMSO (100 μl) was added to dissolve the resulting blue formazan crystals. Plates were shaken vigorously (300 rpm) for 5 min. The absorbance was measured at 570 nm with 630 nm as reference wavelength in a BIO-TEK ELx808 Absorbance Microplate Reader. DMSO was used as blank and doxorubicin (Sigma-Aldrich) as positive control. Cell viability was calculated as percentage of control (cells incubated without compound).

[5] = system: Plasmodium telomeric sequence FPf8T; test: FRET-melting, FPf8T; settings: K+ condition, 2 μM compound, 0.2 μM oligonucleotide
[6] = system: human duplex sequence FdxT; test: FRET-melting, FdxT; settings: duplex control, K+ condition, 2 μM compound, 0.2 μM oligonucleotide
[7] = system: Plasmodium telomeric sequence FPf1T; test: FRET-melting, FPf1T; settings: K+ condition, 2 μM compound, 0.2 μM oligonucleotide
[8] = system: T. brucei brucei AnTat 1.9; test: In vitro antitrypanosomal activity, Alamar Blue assay; assay type: cell-based, Trypanosoma brucei brucei; settings: Trypanosoma brucei, read-out: IC50 T. brucei brucei
Protocol: The effects of the tested compounds on the growth of T. brucei brucei were assessed using an Alamar Blue® assay described in B. Raz et al., Acta Trop. 1997, 68, 139. T. brucei brucei AnTat 1.9 (IMTA, Antwerpen, Belgium) was cultured in MEM with Earle's salts, supplemented according to the protocol disclosed in T. Baltz et al., EMBO J. 1985, 4, 1273, with the following modifications: 0.5 mM mercaptoethanol (Sigma-Aldrich), 1.5 mM 1-cysteine (Sigma-Aldrich), 0.05 mM bathocuproine sulfate (Sigma-Aldrich), and 20% heat-inactivated horse serum (Gibco, France) at 37° C. and 5% CO2. Samples were incubated at an average density of 2000 parasites/well in sterile 96-well plates (Fisher, France) with various concentrations of compounds dissolved in 0.9% NaCl. All doses were tested in duplicate. Appropriate controls treated with solvents 0.9% NaCl or DMSO or with suramin, pentamidine, eflornithine, and fexinidazole (reference drugs purchased from Sigma-Aldrich and Fluorochem, UK) were added to each set of experiments. After a 69-hour incubation at 37° C., 10 μl of the viability marker Alamar Blue (Fisher) was added to each well, and the plates were incubated for 5 hour. The plates were read in a PerkinElmer ENSPIRE (Germany) microplate reader using an excitation wavelength of 530 nm and an emission wavelength of 590 nm. The IC50 was defined as the concentration of drug necessary to inhibit by 50% the activity of T. brucei brucei compared to the control. IC50 values were calculated using a non-linear regression analysis of dose-response curves performed using GraphPad Prism software (USA). IC50 values were calculated from three independent experiments.

[9] = system: human telomeric sequence F21T; test: FRET-melting, F21T; settings: K+ condition, 2 μM compound, 0.2 μM oligonucleotide
[10] = 69-hour incubation, Alamar Blue

Structure (SMILES)	IC50 [1] [µM]	FRET-melting values in K+ conditions at 2 μM ΔTm FtryBT [2] [°C]	IC50 [3] [µM]	IC50 at 72 h [4] [µM]	FRET-melting values in K+ conditions at 2 μM ΔTm FPf8T [5] [°C]	FRET-melting values in K+ conditions at 2 μM ΔTm FdxT [6] [°C]	FRET-melting values in K+ conditions at 2 μM ΔTm FPf1T [7] [°C]	IC50 ([8]; 69 h) [µM]	FRET-melting values in K+ conditions at 2 μM ΔTm F21T [9] [°C]	IC50 [8, 10] [µM]
CN1CCN(CCCNCc2ccc(-c3nc(-c4ccc(CNCCCN5CCN(C)CC5)cc4)c4sccc4n3)cc2)CC1 [Compound 30B, 2,4-Bis{4-[(3-(4-methylpiperazin-1-yl)propyl)aminomethyl]phenyl}thieno[3,2-d]pyrimidine oxalate]	0.03	12.8	10.8 ± 2.95	18.9	15.2	0.5	14.9	0.75 ± 0.1	14.5	
CN1CCN(CCCNCc2ccc(-c3nc(-c4ccc(CNCCCN5CCN(C)CC5)cc4)c4ccsc4n3)cc2)CC1 [Compound 27B, 2,4-Bis{4-[(3-(4-methylpiperazin-1-yl)propyl)aminomethyl]phenyl}thieno[2,3-d]pyrimidine oxalate]	4.18 ± 0.03	7.9	1.95 ± 0.68	11.2	9.0	−0.10	9.6	0.89 ± 0.1	9.72	
CN(C)CCCNCc1ccc(-c2nc(NCCCN(C)C)nc3sccc23)cc1 [Compound 28B, 2-(3-Dimethylaminopropylamino)-4-{4-[(4-dimethylaminopropyl)aminomethyl]phenyl}thieno[2,3-d]pyrimidine oxalate]	11.5 ± 2.47		0.03	35.2		−0.77			2.41	1.1 ± 0.26
CN(C)CCCNCc1ccc(-c2nc(-c3ccc(CNCCCN(C)C)s3)nc3c2ccn3-c2ccccc2)cc1 [Compound 7B, 4-{4-[(3-Dimethylaminopropyl)aminomethyl]phenyl}-2-{5-[(3-dimethylaminopropyl)aminomethyl]thien-2-yl}-7-phenyl-7H-pyrrolo[2,3-d]pyrimidine oxalate]	2.39 ± 0.08	10.5	0.88 ± 0.24	1.91	12.8	−0.3	11.5	0.63 ± 0.07	13.8	
CN(C)CCCNCc1ccc(-c2nc(Cl)nc3[nH]ccc23)cc1 [Compound 15B, 2-Chloro-4-{4-[(3-dimethylaminopropyl)aminomethyl]phenyl}-7H-pyrrolo[2,3-d]pyrimidine oxalate]	15.2 ± 2.08		10.3 ± 0.22	23.7		0.1		0.51 ± 0.07	0.3	
CN(C)CCCNCc1ccc(-c2nc(-c3ccc(CNCCCN(C)C)cc3)c3sccc3n2)cc1 [Compound 29B, 2,4-Bis{4-[(4-dimethylaminopropyl)aminomethyl]phenyl}thieno[3,2-d]pyrimidine oxalate]	2.17 ± 0.41	17.1	1.37 ± 0.24	3.19	20.9	1.8	20.1		19.0	0.14 ± 0.02
CN(C)CCCNCc1ccc(-c2nc(Cl)nc3c2ccn3-c2ccccc2)cc1 [Compound 17B, 2-Chloro-4-{4-[(3-dimethylaminopropyl)aminomethyl]phenyl}-7-phenyl-7H-pyrrolo[2,3-d]pyrimidine oxalate]	0.29 ± 0.04		1.01 ± 0.41	2.87		−0.2		0.02		
CN1CCN(CCCNCc2ccc(-c3nc(-c4ccc(CNCCCN5CCN(C)CC5)cc4)c4ccn(-c5ccccc5)c4n3)cc2)CC1 [Compound 2B, 2,4-bis{4-[(3-(4-methylpiperazin-1-yl)propyl)aminomethyl]phenyl}-7-phenyl-7H-pyrrolo[2,3-d]pyrimidine oxalate]	1.01 ± 0.16	17.3		1.08	20.0	0.7	19.1	0.88 ± 0.07	19.6	
CN(C)CCCNCc1ccc(-c2nc(-c3ccc(CNCCCN(C)C)s3)c3ccn(-c4ccccc4)c3n2)cc1 [Compound 6B, 2-{4-[(3-Dimethylaminopropyl)aminomethyl]phenyl}-4-{5-[(3-dimethylaminopropyl)aminomethyl]thien-2-yl}-7-phenyl-7H-pyrrolo[2,3-d]pyrimidine oxalate]	0.75 ± 0.16	23.1	1.21 ± 0.18	1.74	26.6	1.7	26.3	0.14 ± 0.02	25.5	
CN1CCN(CCCNCc2ccc(-c3nc(Cl)nc4[nH]ccc34)cc2)CC1 [Compound 16B, 2-Chloro-4-{4-[(3-(4-methylpiperazin-1-yl)propyl)aminomethyl]phenyl}-7H-pyrrolo[2,3-d]pyrimidine oxalate]	25.9 ± 4.63		10.5 ± 0.23	63.5		0.1		1.34 ± 0.25	0.8	
CN(C)CCCNCc1ccc(-c2nc(Cl)nc3c2ccn3-c2ccccc2)s1 [Compound 19B, 2-Chloro-4-{5-[(3-dimethylaminopropyl)aminomethyl]thien-2-yl}-7-phenyl-7H-pyrrolo[2,3-d]pyrimidine oxalate]	4.56 ± 0.56		1.97 ± 0.36	1.88		−1.8		0.05 ± 0.01	6.2	
